Target: T1, human Autotaxin (ATX) (Homo sapiens, UniProt Q13822)
T1 construct: generate a full length human ENPP2 ORF with or without a 3′-6×His tag; 6xHis (C); made in house; host or cells: FreeStyle 293-F cells (transient transfection), purified from culture supernatant
Test: Human ATX enzyme inhibition assay (LPC substrate, choline oxidase/HRP/Amplex Red coupled format)
Format: biochemical
Details: recombinant hATX 1 nM, 18:1 LPC 30 μM, fluorescence at 90 mins minus 5 mins
Procedure: Human ATX Enzyme Inhibition Assay
To identify inhibitors of the human Autotaxin (ATX) enzyme an in-vitro biochemical profiling assay has been developed using lysophosphatidylcholine (LPC) as substrate and recombinant enzyme. ATX activity is assayed via a coupled enzyme format where choline produced from LPC hydrolysis is converted to hydrogen peroxide by choline oxidase (CO). Hydrogen peroxide is in turn used as a co-substrate by horseradish peroxidase (HRP) to oxidise Amplex Red® and generate the red-fluorescent product, Resorufin.
50 mM Tris-HCl (pH 8.0); 120 mM NaCl; 20 mM CaCl2; 5 mM KCl; 1 mM MgCl2; 0.01% Triton X-100, sterile-filtered and stored at 4° C.
50 mM Tris-HCl (pH 8.0); 150 mM NaCl
human Autotaxin (hATX): 0.97 mg/ml (9.718 μM) Molecular weight 99817. Working solution of 1.5 μM used in this assay.
100 mM 18:1 LPC dissolved in reagent dilution-buffer.
500 U/ml Choline Oxidase in reagent dilution buffer.
2540 U/ml Horseradish Peroxidase, in reagent dilution buffer (10.95 mg/ml).
20 mM Amplex Red (10-Acetyl-3,7-dihydroxy-phenoxazin) in DMSO.
Black, 384-well plate, black with clear bottom, non-treated surface.
Test compounds are received pre-diluted in DMSO as an 11-point concentration-response (0.5 mM highest concentration; 1 in 3.162 dilution). Test compounds are pre-diluted 1:1 (10 μL compound+10 μL assay buffer) in a 96-well conical bottomed plate prior to use.
ATX is diluted to 2.2 nM in assay buffer. Choline oxidase and horseradish peroxidase are diluted to 7.3 U/ml and 14.7 U/ml, respectively. 18:1 LPC and Amplex Red® are diluted to 110 μM and 183.3 μM, respectively (solution protected from light). 2.2 μL of compound pre-dilution or 50% DMSO is added to the reaction plate followed by 25 μL of ATX or assay buffer (negative control). Assay plate is mixed and incubated at room temperature for 10 mins. 15 μL of choline oxidase/horseradish peroxidase is then added. To initiate the reaction 15 μL of LPC 18:1/Amplex Red is added. Assay plate is mixed and incubated at room temperature in the dark. Fluorescence is measured at 5 mins (for background subtraction) and 90 mins.
Final Assay Concentrations:
Horse Radish Peroxidase: 4 U/ml
Fluorescence at 5-minutes is subtracted from the 90-minute end point data and normalized with respect to the positive control. IC50 values are calculated.
Results in the enzymatic ATX inhibition assay are provided for compounds of formula (I).

In order of rising IC50:
1. N#Cc1cc(Cl)cc2c1C[C@@H](Nc1ncc3c(n1)CN(CC(F)(F)F)C3=O)C2 [Example 10, (S)-6-chloro-2-((5-oxo-6-(2,2,2-trifluoroethyl)-6,7-dihydro-5H-pyrrolo[3,4-d]pyrimidin-2-yl)amino)-2,3-dihydro-1H-indene-4-carbonitrile]  2 nM
2. N#Cc1cc(Cl)cc2c1C[C@@H](Nc1ncc3c(n1)CN(C1CC1)C3=O)C2 [Example 13, (S)-6-chloro-2-((6-cyclopropyl-5-oxo-6,7-dihydro-5H-pyrrolo[3,4-d]pyrimidin-2-yl)amino)-2,3-dihydro-1H-indene-4-carbonitrile]  2 nM
3. CC1(N2Cc3nc(N[C@H]4Cc5cc(Cl)cc(C#N)c5C4)ncc3C2=O)CC1 [Example 15, (S)-6-chloro-2-((6-(1-methylcyclopropyl)-5-oxo-6,7-dihydro-5H-pyrrolo[3,4-d]pyrimidin-2-yl)amino)-2,3-dihydro-1H-indene-4-carbonitrile]  2 nM
4. N#Cc1cc(Cl)cc2c1C[C@@H](Nc1ncc3c(n1)CN(CCF)C3=O)C2 [Example 22, (S)-6-chloro-2-((6-(2-fluoroethyl)-5-oxo-6,7-dihydro-5H-pyrrolo[3,4-d]pyrimidin-2-yl)amino)-2,3-dihydro-1H-indene-4-carbonitrile]  2 nM
5. N#Cc1cc(Cl)cc2c1C[C@@H](Nc1ncc3c(n1)CN(C1CC4(C1)CC(F)(F)C4)C3=O)C2 [Example 7, (S)-6-chloro-2-((6-(6,6-difluorospiro[3.3]heptan-2-yl)-5-oxo-6,7-dihydro-5H-pyrrolo[3,4-d]pyrimidin-2-yl)amino)-2,3-dihydro-1H-indene-4-carbonitrile]  3 nM
6. N#Cc1cc(Cl)cc2c1C[C@@H](Nc1ncc3c(n1)CN(C1CC(F)(F)C1)C3=O)C2 [Example 8, (S)-6-chloro-2-((6-(3,3-difluorocyclobutyl)-5-oxo-6,7-dihydro-5H-pyrrolo[3,4-d]pyrimidin-2-yl)amino)-2,3-dihydro-1H-indene-4-carbonitrile]  3 nM
7. CC(C)N1Cc2nc(N[C@H]3Cc4cc(Cl)cc(C#N)c4C3)ncc2C1=O [Example 12, (S)-6-chloro-2-((6-isopropyl-5-oxo-6,7-dihydro-5H-pyrrolo[3,4-d]pyrimidin-2-yl)amino)-2,3-dihydro-1H-indene-4-carbonitrile]  3 nM
8. N#Cc1cc(Cl)cc2c1C[C@@H](Nc1ncc3c(n1)CN(CC1COC1)C3=O)C2 [Example 14, (S)-6-chloro-2-((6-(oxetan-3-ylmethyl)-5-oxo-6,7-dihydro-5H-pyrrolo[3,4-d]pyrimidin-2-yl)amino)-2,3-dihydro-1H-indene-4-carbonitrile]  3 nM
9. N#Cc1cc(Cl)cc2c1C[C@@H](Nc1ncc3c(n1)CCN(C1COC1)C3=O)C2 [Example 17, (S)-6-chloro-2-((6-(oxetan-3-yl)-5-oxo-5,6,7,8-tetrahydropyrido[4,3-d]pyrimidin-2-yl)amino)-2,3-dihydro-1H-indene-4-carbonitrile]  3 nM
10. N#Cc1cc(Cl)cc2c1C[C@@H](Nc1ncc3c(n1)CN(CC1CC1)C3=O)C2 [Example 18, (S)-6-chloro-2-((6-(cyclopropylmethyl)-5-oxo-6,7-dihydro-5H-pyrrolo[3,4-d]pyrimidin-2-yl)amino)-2,3-dihydro-1H-indene-4-carbonitrile]  3 nM
11. CN1Cc2nc(N[C@H]3Cc4cc(Cl)cc(C#N)c4C3)ncc2C1=O [Example 23, (S)-6-chloro-2-((6-methyl-5-oxo-6,7-dihydro-5H-pyrrolo[3,4-d]pyrimidin-2-yl)amino)-2,3-dihydro-1H-indene-4-carbonitrile]  3 nM
12. N#Cc1cc(Cl)cc2c1C[C@@H](Nc1ncc3c(n1)CCN(C1CCOC1)C3=O)C2 (mixture of isomers) [Example 32, (S,S) and (S,R)-6-chloro-2-((5-oxo-6-(tetrahydrofuran-3-yl)-5,6,7,8-tetrahydropyrido[4,3-d]pyrimidin-2-yl)amino)-2,3-dihydro-1H-indene-4-carbonitrile]  4 nM
13. CC1(N2Cc3nc(N[C@H]4Cc5cc(Cl)cc(C#N)c5C4)ncc3C2=O)CC(F)(F)C1 [Example 6, (S)-6-chloro-2-((6-(3,3-difluoro-1-methylcyclobutyl)-5-oxo-6,7-dihydro-5H-pyrrolo[3,4-d]pyrimidin-2-yl)amino)-2,3-dihydro-1H-indene-4-carbonitrile]  4 nM
14. N#Cc1cc(Cl)cc2c1C[C@@H](Nc1ncc3c(n1)CN(C1COC1)C3=O)C2 [Example 16, (S)-6-chloro-2-((6-(oxetan-3-yl)-5-oxo-6,7-dihydro-5H-pyrrolo[3,4-d]pyrimidin-2-yl)amino)-2,3-dihydro-1H-indene-4-carbonitrile]  4 nM
15. CC1(N2Cc3nc(N[C@H]4Cc5cc(Cl)cc(C#N)c5C4)ncc3C2=O)COC1 [Example 3, (S)-6-chloro-2-((6-(3-methyloxetan-3-yl)-5-oxo-6,7-dihydro-5H-pyrrolo[3,4-d]pyrimidin-2-yl)amino)-2,3-dihydro-1H-indene-4-carbonitrile]  5 nM
16. N#Cc1cc(Cl)cc2c1C[C@@H](Nc1ncc3c(n1)CN(C1CCOCC1)C3=O)C2 [Example 9, (S)-6-chloro-2-((5-oxo-6-(tetrahydro-2H-pyran-4-yl)-6,7-dihydro-5H-pyrrolo[3,4-d]pyrimidin-2-yl)amino)-2,3-dihydro-1H-indene-4-carbonitrile]  5 nM
17. N#Cc1cc(Cl)cc2c1C[C@@H](Nc1ncc3c(n1)CN([C@H]1C[C@H](O)C1)C3=O)C2 [Example 19]  5 nM
18. COCCN1Cc2nc(N[C@H]3Cc4cc(Cl)cc(C#N)c4C3)ncc2C1=O [Example 20, (S)-6-chloro-2-((6-(2-methoxyethyl)-5-oxo-6,7-dihydro-5H-pyrrolo[3,4-d]pyrimidin-2-yl)amino)-2,3-dihydro-1H-indene-4-carbonitrile]  5 nM
19. CC(C)(O)CN1Cc2nc(N[C@H]3Cc4cc(Cl)cc(C#N)c4C3)ncc2C1=O [Example 21, (S)-6-chloro-2-((6-(2-hydroxy-2-methylpropyl)-5-oxo-6,7-dihydro-5H-pyrrolo[3,4-d]pyrimidin-2-yl)amino)-2,3-dihydro-1H-indene-4-carbonitrile]  5 nM
20. N#Cc1cc(Cl)cc2c1C[C@@H](Nc1ncc3c(n1)CN(C1CCOC1)C3=O)C2 (mixture of isomers) [Example 11, (S,S) and (S,R)-6-chloro-2-((5-oxo-6-(tetrahydrofuran-3-yl)-6,7-dihydro-5H-pyrrolo[3,4-d]pyrimidin-2-yl)amino)-2,3-dihydro-1H-indene-4-carbonitrile]  6 nM
21. CC(=O)N1CCC(N2Cc3nc(N[C@H]4Cc5cc(Cl)cc(C#N)c5C4)ncc3C2=O)CC1 [Example 25, (S)-2-((6-(1-acetylpiperidin-4-yl)-5-oxo-6,7-dihydro-5H-pyrrolo[3,4-d]pyrimidin-2-yl)amino)-6-chloro-2,3-dihydro-1H-indene-4-carbonitrile]  6 nM
22. N#Cc1cc(Cl)cc2c1C[C@@H](Nc1ncc3c(n1)CN(CC1(O)CC1)C3=O)C2 [Example 24, (S)-6-chloro-2-((6-((1-hydroxycyclopropyl)methyl)-5-oxo-6,7-dihydro-5H-pyrrolo[3,4-d]pyrimidin-2-yl)amino)-2,3-dihydro-1H-indene-4-carbonitrile]  9 nM
23. O=C1c2cnc(NC3Cc4ccc(Cl)cc4C3)nc2CN1C1CC2(C1)CC(F)(F)C2 (centres unmarked) [Example 4, 2-((5-chloro-2,3-dihydro-1H-inden-2-yl)amino)-6-(6,6-difluorospiro[3.3]heptan-2-yl)-6,7-dihydro-5H-pyrrolo[3,4-d]pyrimidin-5-one]  42 nM
24. O=C1c2cnc(NC3Cc4ccc(Cl)cc4C3)nc2CN1C1CC(F)(F)C1 (centres unmarked) [Example 5, 2-((5-chloro-2,3-dihydro-1H-inden-2-yl)amino)-6-(3,3-difluorocyclobutyl)-6,7-dihydro-5H-pyrrolo[3,4-d]pyrimidin-5-one]  49 nM
25. O=C1c2cnc(NC3Cc4ccc(Cl)cc4C3)nc2CN1C1COC1 (centres unmarked) [Example 1, 2-((5-chloro-2,3-dihydro-1H-inden-2-yl)amino)-6-(oxetan-3-yl)-6,7-dihydro-5H-pyrrolo[3,4-d]pyrimidin-5-one]  150 nM
26. CC1(N2Cc3nc(NC4Cc5ccc(Cl)cc5C4)ncc3C2=O)COC1 (centres unmarked) [Example 2, 2-((5-chloro-2,3-dihydro-1H-inden-2-yl)amino)-6-(3-methyloxetan-3-yl)-6,7-dihydro-5H-pyrrolo[3,4-d]pyrimidin-5-one]  183 nM

Reference: patent US12649745B2, “Amino-pyrimidine cyclo-amides” (Hoffmann-La Roche Inc., priority 2020, dated 2026)
